Test results as given in PMC8297402, “Trifluoromethyl-substituted 3,5-bis(arylidene)-4-piperidones as potential anti-hepatoma and anti-inflammation agents by inhibiting NF-кB activation” (Journal of Enzyme Inhibition and Medicinal Chemistry, 2021).
Several values for one entry are separate records, joined by “and”; a condition that tells them apart may be missing. Identical values can stand only once. Like-named read-outs stand apart in the source and are kept apart here.

Key:
[1] = Modified MTT cytotoxicity assay, normal heptical cell line LO2; format: cell-based, human; details: human, LO2 cells (normal hepatic cell line), 24 h incubation
Experimental: (§1) The HepG2, SMMC-7721, and LO2 cell lines were maintained at 37 °C, 5% humidified CO2, and 95% atmosphere. Dulbecco's Modified Eagle (DMEM) medium containing 10% foetal bovine serum (FBS) was used for culturing the HepG2 cell line; meanwhile, Roswell Park Memorial Institute (RPMI) 1640 medium containing 10% FBS was used for culturing other cell lines (SMMC-7721, LO2). The HepG2, SMMC-7721 and LO2 cells were seeded in a 96-well plate in 200 μL of medium per well at a density of approximately 8 × 10^3 cells/well and cultured for 24 h, followed by incubation in an incubator of indicated compounds with successive concentrations (10, 5, 2.5, 1.25, 0.625, 0.3125 μg/mL) for 24 h. In the control group, cells were only cultured with culture media. After the media were removed, 20 μL of MTT (5 mg/mL) was added, then cells were incubated for 4 h at 37 °C. […] GraphPad Prism 5 software was used to calculate their IC50 values. Every IC50 value was the average of three replicates. Doxorubicin (DOX) and curcumin were used as positive controls.

[2] = test system: SMMC-7721; assay: Modified MTT cytotoxicity assay, SMMC-7721; format: cell-based, Human; details: for IC50: MTT, 24 h incubation, three replicates; for SI (selectivity index) SMMC-7721: quotient of IC50 for normal (LO2) and malignant (SMMC-7721) cells
Experimental: as §1

[3] = Modified MTT cytotoxicity assay, normal heptical cell line HHL-5; details: human, HHL-5 cells (normal hepatic cell line)
[4] = test system: HepG2; assay: Modified MTT cytotoxicity assay, HepG2; format: cell-based, Human; details: for SI (selectivity index) HepG2: quotient of IC50 for normal (LO2) and malignant (HepG2) cells; for SI value, average: average of SI for HepG2 and SMMC-7721
Experimental: as §1

[5] = test system: IL-6; assay: ELISA of IL-6 release in LPS-stimulated RAW264.7 cells; format: cell-based, mouse; details: RAW264.7, ELISA; for inhibition at 5 µM: Mus musculus, RAW264.7, BAPs (5 μM) + LPS (1 μg/mL), read-out: Inhibition rate IL-6; for Inhibition rate IL-6: BAPs (5 μM) + LPS (1 μg/mL)
Experimental: (§2) We tested by inhibiting the secretion of TNF-α and IL-6 to better evaluated the anti-inflammatory effects of BAPs. […] Under the stimulation of LPS (1.0 μg/mL) with RAW264.7 cells, the release of TNF-α and IL-6 was detected. Besides, after treated with BAPs (5.0 μM) and LPS (1.0 μg/mL), the release of TNF-α and IL-6 was measured with an ELISA kit (eBioScience, San Diego, California), respectively. In general terms, pyrrolidine dithiocarbamate (PDTC, 30 μM) or BAP (5.0 μM) was used to pretreat cells for 2 h, respectively. Then, LPS (1.0 μg/mL) was added and cells were incubated for another 22 h. Finally, the culture media were centrifuged at 1000 rpm for 10 min, and the expression levels of TNF-α and IL-6 were determined by ELISA.

[6] = test system: RAW264.7 cell; assay: MTT toxicity pre-experiment on RAW264.7 macrophagocyte; format: cell-based, mouse; details: for viability at 5 µM: Mus musculus, RAW264.7, BAPs 5 μM, read-out: Survival rate RAW264.7 cell; for Survival rate RAW264.7 cell: BAPs 5 μM
Experimental: Lipopolysaccharide (LPS) is a key constituent of Gram-negative bacterial endotoxin, which is used to induce an inflammatory response in corresponding inflammatory cells. TNF-α and IL-6 are two kinds of representative pro-inflammatory factors, which produced by LPS-stimulated RAW264.7 macrophage. In our pre-experiments, the toxicity against RAW264.7 macrophagocyte for all title compounds was tested by the MTT assay, and the results were listed in Table 2. The survival rates were above 80% for all BAPs (4-30) at the concentration of 5.0 μM.

[7] = test system: A549; assay: Modified MTT cytotoxicity assay, A549; details: for SI (selectivity index) A549: quotient of IC50 for normal (HHL-5) and malignant (A549) cells
Experimental: To further verify the anti-tumour activity, one human non-small cell lung cancer cell line (A549), one human ovarian cancer cell line (A2780), and one human normal heptical cell line (HHL-5) were screened by BAPs (4–30) using a modified MTT assay (Supporting Information). DOX and curcumin were selected as positive controls.
The optical density (OD) value of each well was measured on a
multi-well plate reader (TECAN, Mӓnnedorf, Switzerland ) at 570 nm.
Every IC 50 value was the average of three replicates.
Doxorubicin (DOX) and Curcumin were used as positive controls.

[8] = test system: A2780; assay: Modified MTT cytotoxicity assay, A2780; details: for SI (selectivity index) A2780: quotient of IC50 for normal (HHL-5) and malignant (A2780) cells
[9] = test system: TNF-α; assay: ELISA of TNF-α release in LPS-stimulated RAW264.7 cells; format: cell-based, mouse; details: for inhibition at 5 µM: Mus musculus, RAW264.7, BAPs (5 μM) + LPS (1 μg/mL), read-out: Inhibition rate TNF-α; for inhibition at 5 µM / Inhibition rate TNF-α: RAW264.7, ELISA; for Inhibition rates against IL-6 and TNF-α cytokine release, average: average of TNF-α and IL-6, 5 μM + LPS, RAW264.7; for Inhibition rate TNF-α: BAPs (5 μM) + LPS (1 μg/mL)
Experimental: as §2

[10] = test system: LO2; assay: Modified MTT cytotoxicity assay, normal heptical cell line LO2; format: cell-based, human; details: 24 h incubation
Experimental: as §1

[11] = test system: HHL-5; assay: Modified MTT cytotoxicity assay, normal heptical cell line HHL-5; details: read-out: Cytotoxicity IC50 HHL-5; MTT, normal heptical cell line
[12] = Homo sapiens, HepG2, 24 h, MTT, 24 h incubation, three replicates, read-out: Cytotoxicity IC50 HepG2
[13] = Homo sapiens, A549, read-out: Cytotoxicity IC50 A549, MTT, non-small cell lung cancer cell line
[14] = Homo sapiens, A2780, read-out: Cytotoxicity IC50 A2780, MTT, ovarian cancer cell line
[15] = MTT, 24 h incubation, three replicates, read-out: Cytotoxicity IC50 HepG2
[16] = average of HepG2 and SMMC-7721, read-out: Cytotoxicity against HCC cells, average
[17] = read-out: Cytotoxicity IC50 A549, MTT, non-small cell lung cancer cell line
[18] = read-out: Cytotoxicity IC50 A2780, MTT, ovarian cancer cell line

Compound	SI (selectivity index) SMMC-7721 [2]	SI (selectivity index) HepG2 [4]	SI (selectivity index) A549 [7]	SI (selectivity index) A2780 [8]	IC50 [10]	IC50 [2]	IC50 [11]	IC50 [4, 15]	Survival rate RAW264.7 cell [6]	IC50 [7, 17]	IC50 [8, 18]	Inhibition rate IL-6 [5]	Inhibition rate TNF-α [9]	further results
O=C1/C(=C/c2ccc(C(F)(F)F)cc2)CN(S(=O)(=O)c2ccc(Cl)cc2)C/C1=C\c1ccc(C(F)(F)F)cc1 [BAP 27]	8.8	11.3	65.0	46.2	–	–	–	–	–	–	–	–	–	IC50 at 24 h [1]: 15800 ± 400 nM; IC50 ([2]; Homo sapiens, SMMC-7721, 24 h): 1800 ± 200 nM; IC50 [3]: 9100 ± 200 nM; IC50 [4, 12]: 1400 ± 200 nM; melting point: 220 to 222 °C; inhibition at 5 µM [5]: 67.3 ± 2.2%; viability at 5 µM [6]: 86.4 ± 4.8%; IC50 [7, 13]: 140 ± 40 nM; IC50 [8, 14]: 197 ± 50 nM; inhibition at 5 µM [9]: 69.9 ± 2.7%
O=C1/C(=C/c2ccccc2C(F)(F)F)CN(S(=O)(=O)c2ccc([N+](=O)[O-])cc2)C/C1=C\c1ccccc1C(F)(F)F [BAP 6]	1.5	3.7	1.0	0.3	–	–	–	–	–	–	–	–	–	IC50 at 24 h [1]: 15700 ± 1300 nM; IC50 ([2]; Homo sapiens, SMMC-7721, 24 h): 10400 ± 200 nM; IC50 [4, 12]: 4300 ± 200 nM; melting point: 204 to 206 °C; inhibition at 5 µM [5]: 68.2 ± 3%; viability at 5 µM [6]: 85.7 ± 3.1%; IC50 [7, 13]: 7580 ± 1760 nM; IC50 [8, 14]: 28800 ± 5330 nM; inhibition at 5 µM [9]: 61 ± 2.7%
O=C1/C(=C/c2ccc(C(F)(F)F)cc2)CN(S(=O)(=O)c2ccc(C(F)(F)F)cc2)C/C1=C\c1ccc(C(F)(F)F)cc1 [BAP 25]	14.1	20.3	41.1	39.6	18300 ± 600 nM	1300 ± 300 nM	11100 ± 200 nM	900 ± 200 nM	87.3% and 87.3 ± 4.2%	270 ± 30 nM	280 ± 30 nM	–	–	IC50 [4, 16]: 1100 nM; SI value, average [4]: 17.2; Inhibition rates against IL-6 and TNF-α cytokine release, average [9]: 78.6%
O=C1/C(=C/c2ccc(C(F)(F)F)cc2)CN(S(=O)(=O)c2ccc([N+](=O)[O-])cc2)C/C1=C\c1ccc(C(F)(F)F)cc1 [BAP 24]	4.5	12.0	44.1	44.1	14400 ± 100 nM	3200 ± 300 nM	7500 ± 600 nM	1200 ± 300 nM	89.0 ± 1.6%	170 ± 10 nM	170 ± 20 nM	57.3 ± 2.1%	65.0 ± 1.8%	–
Cc1ccc(S(=O)(=O)N2C/C(=C\c3ccc(C(F)(F)F)cc3)C(=O)/C(=C/c3ccc(C(F)(F)F)cc3)C2)cc1 [BAP 23]	16.4	13.1	23.3	21.9	13100 ± 300 nM	~800 nM	3500 ± 200 nM	~1000 nM	89.2 ± 3.0%	150 ± 20 nM	160 ± 20 nM	69.2 ± 6.3%	78.1 ± 3.2%	IC50 ([2]; listed as 23): 800 ± 200 nM; IC50 ([4]; MTT, 24 h incubation, three replicates, listed as 23, read-out: Cytotoxicity IC50 HepG2): 1000 ± 300 nM
CC(=O)Nc1ccc(S(=O)(=O)N2C/C(=C\c3cccc(C(F)(F)F)c3)C(=O)/C(=C/c3cccc(C(F)(F)F)c3)C2)cc1 [BAP 21]	2.8	11.1	14.3	17.6	14400 ± 100 nM	5100 ± 100 nM	3000 ± 600 nM	1300 ± 100 nM	90.2 ± 3.6%	210 ± 10 nM	170 ± 10 nM	71.6 ± 5.3%	78.5 ± 4.2%	–
CC(=O)Nc1ccc(S(=O)(=O)N2C/C(=C\c3ccc(C(F)(F)F)cc3)C(=O)/C(=C/c3ccc(C(F)(F)F)cc3)C2)cc1 [BAP 30]	4.6	7.9	21.4	16.2	14200 ± 1100 nM	3100 ± 200 nM	2100 ± 100 nM	1800 ± 200 nM	92.0 ± 1.3%	98 ± 10 nM	130 ± 20 nM	70.1 ± 1.2%	68.3 ± 3.1%	–
CC(=O)Nc1ccc(S(=O)(=O)N2C/C(=C\c3ccccc3C(F)(F)F)C(=O)/C(=C/c3ccccc3C(F)(F)F)C2)cc1 [BAP 12]	1.4	1.2	3.3	6.5	15600 ± 1300 nM	10900 ± 400 nM	7900 ± 200 nM	12900 ± 100 nM	86.4 ± 0.7%	2390 ± 90 nM	1220 ± 60 nM	62.8 ± 3.0%	67.2 ± 2.4%	–
N#Cc1ccc(S(=O)(=O)N2C/C(=C\c3ccc(C(F)(F)F)cc3)C(=O)/C(=C/c3ccc(C(F)(F)F)cc3)C2)cc1 [BAP 29]	16.5	–	203.7	91.7	21500 ± 1500 nM	1300 ± 300 nM	16500 ± 300 nM	1700 ± 100 nM	83.4% and 83.4 ± 3.3%	~81 nM	~180 nM	–	–	IC50 [4, 16]: 1500 nM; SI value, average [4]: 14; SI (selectivity), bound stated for A549 and A2780 together ([7]; A549 and A2780 vs HHL-5): > 90; IC50 ([7]; read-out: Cytotoxicity IC50 A549, MTT, non-small cell lung cancer cell line, listed as 29): 81 ± 4 nM; IC50 ([8]; read-out: Cytotoxicity IC50 A2780, MTT, ovarian cancer cell line, listed as 29): 180 ± 10 nM; Inhibition rates against IL-6 and TNF-α cytokine release, average [9]: 73.4%
O=C1/C(=C/c2ccccc2C(F)(F)F)CN(S(=O)(=O)c2ccc(C(F)(F)F)cc2)C/C1=C\c1ccccc1C(F)(F)F [BAP 7]	6.6	8.2	3.4	27.6	17200 ± 200 nM	~2600 nM	9100 ± 200 nM	~2100 nM	87.3 ± 1.9%	2680 ± 530 nM	330 ± 30 nM	–	–	IC50 ([2]; listed as 7): 2600 ± 200 nM; IC50 ([4]; MTT, 24 h incubation, three replicates, listed as 7, read-out: Cytotoxicity IC50 HepG2): 2100 ± 100 nM; Inhibition rate IL-6 ([5]; 5 µM): ca. 71.2%; Inhibition rate IL-6 ([5]; listed as 7, 5 µM): 71.2 ± 1.3%; Inhibition rate TNF-α ([9]; 5 µM): ca. 69.9%; Inhibition rate TNF-α ([9]; listed as 7, 5 µM): 69.9 ± 1.1%
